Experimental data: article PMC10854695, “Using Flavonoid Substitution Status to Predict Anticancer Effects in Human Melanoma Cancers: An In Vitro Study” (Cancers, 2024)

Columns and labels:
C32 melanoma cells [1] = assay: MTT cell viability assay, C32; settings: Homo sapiens, read-out: IC50, cytotoxic activity, MTT test;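 also: MTT added for 2 h, cells lysed in DMSO, absorbance read at 570 nm, compound vehicle kept at or below 0.1% DMSO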
in vitro = settings: human
Protocol: (§1) The MTT colorimetric assay was performed as a preliminary evaluation of the cytotoxicity of the selected flavonoids according to the method described and validated by Strawa et al. [21]. Briefly, melanoma cells and fibroblasts were seeded in 96-well microplates at a density of 1 × 10^4 cells per well. Fibroblasts were used as a control cell line in order to assess the selectivity of the compounds. […] Subsequently, the cells were washed with PBS, incubated with MTT solution for 2 h, and lysed with dimethyl sulfoxide (DMSO) supplemented with 1% (v/v) Sorensen’s glycine buffer. The absorbance was measured using a microplate reader (EPOCH 2, BioTek, Winooski, VT, USA) at a wavelength of 570 nm. The compounds were used at a final DMSO concentration of no more than 0.1% (v/v) in each well. The results were generated from at least three independent experiments. […] The IC50 values were calculated with GraphPad Prism 9 software (GraphPad Software, San Diego, CA, USA).

[2] = Neutral red uptake (NRU) assay, normal cells; settings: human
A375 melanoma cells [3] = assay: MTT cell viability assay, A375; settings: Homo sapiens;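 also: Read-out is formazan absorbance at 570 nm after 2 h with MTT, with compounds in at most 0.1% v/v DMSO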
Protocol: as §1

C32 melanoma cells [4] = assay: Neutral red uptake (NRU) assay, C32; settings: Homo sapiens
Protocol: (§2) The NRU (neutral red uptake) was conducted as previously described by Szoka and co-workers, with some modifications [22]. Briefly, melanoma cells and fibroblasts were seeded in microplates at the density of 1 × 10^4 cells per well and allowed to adhere for 24 h. […] After treatment, the culture medium was replaced with a neutral red solution (40 µg/mL). An additional 2 h of incubation was performed. The neutral red solution was then removed and the neutral red accumulated in the cells was dissolved in 50% EtOH with 1% of the glacial acetic acid. The absorbance was estimated at 540 nm and IC50 values were calculated using GraphPad Prism software (GraphPad Software, San Diego, CA, USA).

A375 melanoma cells [5] = assay: Neutral red uptake (NRU) assay, A375; settings: Homo sapiens, read-out: IC50, cytotoxic activity, NRU assay
Protocol: as §2

[6] = MTT cell viability assay, normal cells; settings: human;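 also: fibroblasts served as non-cancer comparison line for selectivity versus melanoma cells, MTT reduction read as absorbance at 570 nm after 2 h dye exposure, compounds in ≤0.1% DMSO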
Protocol: as §1

[7] = human skin fibroblasts (CCD25Sk)
[8] = A-375, 24 h, read-out: IC50, cytotoxic activity, MTT test, A375, 24 h
[9] = A-375, 48 h, read-out: IC50, cytotoxic activity, MTT test, A375, 48 h
[10] = A-375, 72 h, read-out: IC50, cytotoxic activity, MTT test, A375, 72 h
[11] = C32, 24 h, read-out: IC50, cytotoxic activity, NRU assay, C32, 24 h
[12] = C32, 48 h, read-out: IC50, cytotoxic activity, NRU assay, C32, 48 h
[13] = C32, 72 h, read-out: IC50, cytotoxic activity, NRU assay, C32, 72 h

| SMILES | IC50 (C32 melanoma cells [1]; C32, 24 h) | IC50 (C32 melanoma cells [1]; C32, 48 h) | IC50 (C32 melanoma cells [1]; C32, 72 h) | IC50 at 24 h [2, 7] | IC50 at 48 h [2, 7] | IC50 at 72 h [2, 7] | IC50 (A375 melanoma cells [3]; [8]) | IC50 (A375 melanoma cells [3]; [9]) | IC50 (A375 melanoma cells [3]; [10]) | IC50 (C32 melanoma cells [4]; [11]) | IC50 (C32 melanoma cells [4]; [12]) | IC50 (C32 melanoma cells [4]; [13]) | IC50 (A375 melanoma cells [5]; A-375, 24 h) | IC50 (A375 melanoma cells [5]; A-375, 48 h) | IC50 (A375 melanoma cells [5]; A-375, 72 h) | IC50 at 24 h [6, 7] | IC50 at 48 h [6, 7] | IC50 at 72 h [6, 7] | also measured |
| --- | --- | --- | --- | --- | --- | --- | --- | --- | --- | --- | --- | --- | --- | --- | --- | --- | --- | --- | --- |
| O=c1cc(-c2ccc(O)c(O)c2)oc2cc(OC3OC(CO)C(O)C(O)C3O)cc(O)c12 (stereo not drawn) [Compound 7, luteolin 7-O-glucoside] | > 200 µM | 60.5 ± 4.6 µM | 40.7 ± 2.9 µM | > 200 µM | 100 to 200 µM | 100 to 200 µM | > 200 µM | > 200 µM | 37.1 ± 3 µM | > 200 µM | 29.6 ± 2 µM | 23 ± 2.1 µM | > 200 µM | 56.7 ± 3.8 µM | 41.5 ± 3.3 µM |  |  |  | IC50 at 24 h (in vitro): > 200 µM; IC50 at 48 h (in vitro): > 200 µM; IC50 at 72 h (in vitro): > 200 µM |
| O=C(O)C1OC(Oc2cc(O)c3c(=O)cc(-c4ccc(O)c(O)c4)oc3c2)C(O)C(O)C1O (stereo not drawn) [Compound 8, luteolin 7-O-glucuronide] | > 200 µM | > 200 µM | > 200 µM | > 200 µM | > 200 µM | > 200 µM | > 200 µM | > 200 µM | > 200 µM | > 200 µM | > 200 µM | > 200 µM | > 200 µM | > 200 µM | > 200 µM |  |  |  | IC50 at 24 h (in vitro): > 200 µM; IC50 at 48 h (in vitro): > 200 µM; IC50 at 72 h (in vitro): > 200 µM |
| O=C(O)C1OC(Oc2c(-c3ccc(O)c(O)c3)oc3cc(O)cc(O)c3c2=O)C(O)C(O)C1O (stereo not drawn) [Compound 27, quercetin 3-O-glucuronide] | > 200 µM | > 200 µM | > 200 µM | > 200 µM | > 200 µM | > 200 µM | > 200 µM | > 200 µM | > 200 µM | > 200 µM | > 200 µM | 100 to 200 µM | > 200 µM | > 200 µM | > 200 µM | > 200 µM | > 200 µM | > 200 µM |  |
| C[C@@H]1O[C@@H](OC[C@H]2O[C@@H](Oc3c(-c4ccc(O)c(O)c4)oc4cc(O)cc(O)c4c3=O)[C@H](O)[C@@H](O)[C@@H]2O)[C@H](O)[C@H](O)[C@H]1O [Compound 28, quercetin 3-O-rutinoside] | > 200 µM | > 200 µM | > 200 µM | > 200 µM | > 200 µM | > 200 µM | > 200 µM | 57 ± 3.1 µM | 57.8 ± 4.8 µM | > 200 µM | > 200 µM | > 200 µM | > 200 µM | > 200 µM | > 200 µM | > 200 µM | > 200 µM | > 200 µM |  |
| CC1OC(OCC2OC(Oc3c(-c4ccc(O)c(O)c4)oc4cc(OC5OC(CO)C(O)C(O)C5O)cc(O)c4c3=O)C(O)C(O)C2O)C(O)C(O)C1O (stereo not drawn) [Compound 29, quercetin 3-O-rutinoside-7-O-glucoside] | > 200 µM | > 200 µM | > 200 µM | > 200 µM | > 200 µM | > 200 µM | > 200 µM | > 200 µM | > 200 µM | > 200 µM | > 200 µM | > 200 µM | > 200 µM | > 200 µM | > 200 µM | > 200 µM | > 200 µM | > 200 µM |  |
| COc1cc(-c2cc(=O)c3c(O)cc(O)cc3o2)cc(OC)c1O [Compound 31, tricin] | > 200 µM | 100 to 200 µM | 100 to 200 µM |  |  |  |  |  |  |  |  |  | > 200 µM | > 200 µM | > 200 µM |  |  |  | IC50 at 24 h [2]: > 200 µM; IC50 at 48 h [2]: > 200 µM; IC50 at 72 h [2]: > 200 µM; IC50 at 24 h [6]: 100 to 200 µM; IC50 at 48 h [6]: 80.3 ± 6.6 µM; IC50 at 72 h [6]: 56.4 ± 4.7 µM; IC50 (A375 melanoma cells [3]; A-375, 24 h, read-out: IC50, cytotoxic activity, MTT test): > 200 µM; IC50 (A375 melanoma cells [3]; A-375, 48 h, read-out: IC50, cytotoxic activity, MTT test): 100 to 200 µM; IC50 (A375 melanoma cells [3]; A-375, 72 h, read-out: IC50, cytotoxic activity, MTT test): 100 to 200 µM; IC50 (C32 melanoma cells [4]; C32, 24 h, read-out: IC50, cytotoxic activity, NRU assay): > 200 µM; IC50 (C32 melanoma cells [4]; C32, 48 h, read-out: IC50, cytotoxic activity, NRU assay): > 200 µM; IC50 (C32 melanoma cells [4]; C32, 72 h, read-out: IC50, cytotoxic activity, NRU assay): > 200 µM |
| O=c1c(O)c(-c2cc(O)c(O)c(O)c2)oc2cc(O)ccc12 [Compound 32, robinetin] | > 200 µM | > 200 µM | > 200 µM | > 200 µM | > 200 µM | > 200 µM | > 200 µM | > 200 µM | 100 to 200 µM | > 200 µM | > 200 µM | > 200 µM | > 200 µM | > 200 µM | > 200 µM | > 200 µM | > 200 µM | > 200 µM |  |
| COc1ccc(C2CC(=O)c3c(O)cc(OC4OC(COC5OC(C)C(O)C(O)C5O)C(O)C(O)C4O)cc3O2)cc1O (stereo not drawn) [Compound 34, hesperetin 7-O-rutinoside] | > 200 µM | > 200 µM | > 200 µM | > 200 µM | > 200 µM | > 200 µM | > 200 µM | > 200 µM | > 200 µM | > 200 µM | > 200 µM | > 200 µM | > 200 µM | > 200 µM | > 200 µM | > 200 µM | > 200 µM | > 200 µM |  |
| COc1ccc(C2CC(=O)c3c(O)cc(OC4OC(CO)C(O)C(O)C4OC4OC(C)C(O)C(O)C4O)cc3O2)cc1O (stereo not drawn) [Compound 35, hesperetin 7-O-neohesperidoside] | > 200 µM | > 200 µM | > 200 µM | > 200 µM | > 200 µM | > 200 µM | > 200 µM | > 200 µM | > 200 µM | > 200 µM | > 200 µM | > 200 µM | > 200 µM | > 200 µM | > 200 µM | > 200 µM | > 200 µM | > 200 µM |  |
| O=c1c(-c2ccc(O)cc2)coc2cc(O)ccc12 [Compound 36, daidzein] | > 200 µM | > 200 µM | > 200 µM | > 200 µM | > 200 µM | > 200 µM | > 200 µM | > 200 µM | > 200 µM | > 200 µM | > 200 µM | > 200 µM | > 200 µM | > 200 µM | > 200 µM | > 200 µM | > 200 µM | > 200 µM |  |
